# The source made the active and inactive calls.
# Assays:
# [1] = target: T1, Histone-lysine N-methyltransferase NSD2 (Homo sapiens, UniProt O96028); assay type: biochemical
# T1 sequence (O96028 whole entry): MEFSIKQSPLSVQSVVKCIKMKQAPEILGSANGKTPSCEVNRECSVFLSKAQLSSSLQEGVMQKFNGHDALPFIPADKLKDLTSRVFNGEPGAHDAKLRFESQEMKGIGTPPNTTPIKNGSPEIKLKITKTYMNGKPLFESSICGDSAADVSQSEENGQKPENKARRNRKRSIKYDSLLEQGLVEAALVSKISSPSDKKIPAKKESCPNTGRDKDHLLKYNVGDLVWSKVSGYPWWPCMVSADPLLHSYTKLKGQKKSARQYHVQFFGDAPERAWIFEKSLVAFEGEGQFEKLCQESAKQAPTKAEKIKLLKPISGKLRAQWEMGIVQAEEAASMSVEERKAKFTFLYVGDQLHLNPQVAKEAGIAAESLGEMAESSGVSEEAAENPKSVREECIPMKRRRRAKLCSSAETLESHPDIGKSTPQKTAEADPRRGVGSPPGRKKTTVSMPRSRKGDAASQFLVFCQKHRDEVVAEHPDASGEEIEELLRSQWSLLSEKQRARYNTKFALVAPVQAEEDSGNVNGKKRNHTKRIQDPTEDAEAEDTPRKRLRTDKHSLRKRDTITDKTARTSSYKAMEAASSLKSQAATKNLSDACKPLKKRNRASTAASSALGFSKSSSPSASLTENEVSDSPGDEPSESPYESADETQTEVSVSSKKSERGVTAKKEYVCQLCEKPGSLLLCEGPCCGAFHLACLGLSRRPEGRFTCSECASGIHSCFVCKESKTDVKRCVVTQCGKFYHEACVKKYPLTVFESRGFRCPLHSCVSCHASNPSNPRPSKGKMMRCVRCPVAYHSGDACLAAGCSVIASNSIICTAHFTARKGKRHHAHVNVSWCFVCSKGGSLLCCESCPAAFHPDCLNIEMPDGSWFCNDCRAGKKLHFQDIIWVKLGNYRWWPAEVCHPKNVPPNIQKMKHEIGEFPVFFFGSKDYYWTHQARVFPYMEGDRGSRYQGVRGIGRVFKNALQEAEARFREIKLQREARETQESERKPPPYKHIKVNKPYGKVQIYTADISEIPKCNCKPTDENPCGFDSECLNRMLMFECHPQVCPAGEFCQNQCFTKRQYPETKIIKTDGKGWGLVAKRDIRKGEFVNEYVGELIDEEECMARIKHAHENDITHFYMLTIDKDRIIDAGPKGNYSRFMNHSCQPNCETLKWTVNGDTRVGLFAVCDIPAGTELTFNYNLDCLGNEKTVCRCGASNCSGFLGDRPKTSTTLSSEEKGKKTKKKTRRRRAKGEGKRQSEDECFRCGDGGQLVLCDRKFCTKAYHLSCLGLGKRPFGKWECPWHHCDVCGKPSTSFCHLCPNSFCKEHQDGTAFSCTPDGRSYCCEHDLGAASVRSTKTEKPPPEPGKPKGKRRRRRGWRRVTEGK
# [2] = target: T2, Oxysterols receptor LXR-beta (Homo sapiens, UniProt P55055); assay type: functional, cell-based
# T2 sequence (P55055 whole entry): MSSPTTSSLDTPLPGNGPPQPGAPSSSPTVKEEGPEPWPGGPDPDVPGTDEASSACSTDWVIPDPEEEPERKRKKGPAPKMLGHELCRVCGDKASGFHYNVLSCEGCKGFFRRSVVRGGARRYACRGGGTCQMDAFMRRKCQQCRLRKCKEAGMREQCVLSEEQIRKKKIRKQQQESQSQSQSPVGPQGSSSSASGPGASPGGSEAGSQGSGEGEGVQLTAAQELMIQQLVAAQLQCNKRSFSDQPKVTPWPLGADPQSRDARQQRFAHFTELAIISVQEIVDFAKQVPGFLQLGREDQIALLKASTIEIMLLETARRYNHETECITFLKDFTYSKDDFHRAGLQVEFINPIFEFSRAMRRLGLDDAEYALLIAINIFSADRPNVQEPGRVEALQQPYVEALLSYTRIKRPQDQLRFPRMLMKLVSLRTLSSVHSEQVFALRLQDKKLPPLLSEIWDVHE
# [3] = tested on: Streptococcus; assay: GAS UMAA2166 growth inhibition – luminescence, BacTiterGlo, counter-screen for streptokinase expression inhibitor project, dose response (AID 1915); assay type: functional, organism-based;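 further: potency for reduction of bacterial viability or growth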
# [4] = HGIII-sPLA2 enzyme inhibition potency – biochemical, QFRET, IC50, dose response (AID 743457);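 further: green fluorescence rise as the enzyme cleaves BODIPY PC-A2 in liposomes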
# [5] = tested on: Streptococcus sp. 'group A'; assay: Streptococcus pyogenes SK(-)GAS viability under kanamycin – luminescence, BacTiterGlo, confirmation, counter-screen for streptokinase expression inhibitor project, dose response (AID 1900); assay type: functional, organism-based
# [6] = tested on: Vero; assay: cells; assay type: functional; conditions: Chlorocebus sabaeus
# [7] = Trypanosoma cruzi growth suppression in host cells – NIH3T3 host cells, beta-gal luminescence, confirmation (AID 2044); assay type: functional, cell-based;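 further: intracellular parasites grown in NIH/3T3 mouse fibroblasts as host cells; luminescent beta-galactosidase reporter signal from transgenic T. cruzi replicating inside host cells; inhibitors lower the luminescence signal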
# [8] = NIH3T3 cell viability loss – ATP luminescence, mouse fibroblasts, counter-screen, dose response (AID 2010); assay type: functional, cell-based;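 further: cells exposed to compound for about 90 hours before reading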
# [9] = target: T2, Oxysterols receptor LXR-beta; assay: LXR agonists, Gal4 luciferase reporter, dose response, counter-screen for ssDAF-12 agonist project, cell-based, luminescence, HEK293, S. stercoralis campaign (AID 720737); assay type: functional; conditions: read-out: IC50 (the source's name)
# [10] = Luminescence-based cell-based high throughput dose response assay to identify activators of the DAF-12 from the parasite S. stercoralis (ssDAF-12).; assay type: functional
# [11] = target: Large T antigen (Simian virus 40, UniProt P03070); assay type: functional, Betapolyomavirus macacae;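 further: Confirmatory-stage PubChem screen for compounds that inhibit SV40 T antigen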
# [12] = target: T2, Oxysterols receptor LXR-beta; assay type: functional, cell-based; remark: listed apart in the source
# [13] = cells
# [14] = IGROV1 cell killing – plate reader, dry powder samples, PAX8 inhibitor project, dose response (AID 743043); assay type: functional, cell-based; conditions: IGROV-1
# [15] = A2780 cell killing – plate reader, dry powder samples, cytotoxicity control, dose response (AID 743046); assay type: functional, cell-based
# [16] = target: Paired box protein Pax-8 (Homo sapiens, UniProt Q06710); assay: PAX8 transcriptional activity inhibition in RMG-I – RMG-I cells, luciferase, cherry-pick, dose response (AID 687027); assay type: functional, cell-based;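 further: luciferase reporter driven by Pax8 target thyroperoxidase promoter measured by SteadyGlo luminescence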
# [17] = OVCAR-3 cell viability loss – plate reader, dry powder samples, PAX8 inhibitor project, dose response (AID 743044); assay type: functional, cell-based
# [18] = cells; assay type: functional, cell-based
# [19] = target: T3, Trace amine-associated receptor 1 (Homo sapiens, UniProt Q96RJ0); assay: Counterscreen for agonists of the human trace amine associated receptor 1 (hTAAR1): Fluorescence-based cell-based high throughput dose response assay to identify hTAAR1 agonist that also desensitize TAAR1 receptor response.; assay type: functional
# T3 sequence (Q96RJ0 whole entry): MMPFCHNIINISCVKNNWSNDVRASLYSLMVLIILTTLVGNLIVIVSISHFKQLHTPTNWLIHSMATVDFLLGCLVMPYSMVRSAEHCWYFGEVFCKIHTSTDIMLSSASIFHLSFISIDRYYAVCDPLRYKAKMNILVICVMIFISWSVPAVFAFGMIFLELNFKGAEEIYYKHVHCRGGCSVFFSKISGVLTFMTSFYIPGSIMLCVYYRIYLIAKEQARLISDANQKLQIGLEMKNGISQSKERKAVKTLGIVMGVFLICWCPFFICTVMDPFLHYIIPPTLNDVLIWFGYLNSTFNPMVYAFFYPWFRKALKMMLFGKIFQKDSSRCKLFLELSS
# [20] = target: T3, Trace amine-associated receptor 1; assay: Fluorescence-based cell-based high throughput dose response assay to identify agonists of the human trace amine associated receptor 1 (TAAR1).; assay type: functional
# [21] = cells; assay type: functional, cell-based; remark: listed apart in the source
# [22] = cytotoxicity in MITF-independent A375 cells – cell-based, CellTiter-Glo luminescence, dry powder, set 4, counter-screen for MITF inhibitor project, dose response (AID 624364); assay type: functional; conditions: A-375;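 further: A375 melanoma cells are MITF independent so this is a counter screen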
# [23] = viability loss in MITF-independent A375 cells – cell-based, CellTiter-Glo luminescence, dry powder, set 2, counter-screen for MITF inhibitor project, dose response (AID 624489); assay type: functional; conditions: A-375;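 further: actives are compounds lowering A375 viability meaning general cytotoxicity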
# [24] = blockade of melanocortin 4 receptor signaling – cell-based, plate reader, cherry pick, counter-screen for LGR2 antagonist project, dose response (AID 743444); assay type: functional;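 further: transfected HEK 293 cells stimulated with alpha-MSH peptide; potency of inhibitors of the alpha-MSH evoked signal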
# [25] = A549 cell cytotoxicity, dose response, cytotoxicity control, plate reader, cherry-pick, antagonist series (AID 743412); assay type: functional, cell-based
# [26] = viability loss in HEK293 cells – cell-based, plate reader, cherry-picked samples, cytotoxicity control, dose response (AID 743446); assay type: functional
# [27] = blockers of bursicon-stimulated LGR2 cAMP reporter – cell-based, HEK293, CRE-luciferase reporter, cherry pick, set 2, dose response (AID 743343); assay type: functional;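 further: transfected cells were stimulated with diluted bursicon conditioned medium after compound addition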
# [28] = toxicity toward HepG2 liver cells – cell-based, plate reader, cherry-pick, antagonist series, cytotoxicity control, dose response (AID 743416); assay type: functional
# [29] = cytotoxicity toward Colo320 cells – cell-based, CellTiter-Glo luminescence, IC50, dose response (AID 1117334); assay type: functional; conditions: COLO 320
# [30] = Reduced DLD-1 viability, concentration-response, CellTiter-Glo luminescence (AID 1117352); assay type: functional
# [31] = cytotoxicity toward HCT116 cells – cell-based, CellTiter-Glo luminescence, IC50, dose response (AID 1117332); assay type: functional; conditions: HCT-116
# [32] = CellTiter-Glo luminescence survival assay, SW480 colon tumor line, concentration-response curve, half-maximal inhibitory concentration (AID 1117338); assay type: functional
# Sequence of Paired box protein Pax-8 (Q06710 whole entry): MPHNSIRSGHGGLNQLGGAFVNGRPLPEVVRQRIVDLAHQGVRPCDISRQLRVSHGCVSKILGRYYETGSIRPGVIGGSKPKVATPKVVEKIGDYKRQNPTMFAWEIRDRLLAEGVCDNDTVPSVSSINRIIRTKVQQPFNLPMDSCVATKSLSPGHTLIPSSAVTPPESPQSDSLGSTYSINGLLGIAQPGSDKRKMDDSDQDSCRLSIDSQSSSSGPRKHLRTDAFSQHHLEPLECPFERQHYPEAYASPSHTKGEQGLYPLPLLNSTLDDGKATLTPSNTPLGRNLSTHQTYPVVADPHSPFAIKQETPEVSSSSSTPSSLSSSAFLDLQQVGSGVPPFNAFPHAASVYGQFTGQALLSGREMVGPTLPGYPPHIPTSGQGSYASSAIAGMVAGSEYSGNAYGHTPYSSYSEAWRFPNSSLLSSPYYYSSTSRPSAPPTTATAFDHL
# Sequence of Large T antigen (P03070 whole entry): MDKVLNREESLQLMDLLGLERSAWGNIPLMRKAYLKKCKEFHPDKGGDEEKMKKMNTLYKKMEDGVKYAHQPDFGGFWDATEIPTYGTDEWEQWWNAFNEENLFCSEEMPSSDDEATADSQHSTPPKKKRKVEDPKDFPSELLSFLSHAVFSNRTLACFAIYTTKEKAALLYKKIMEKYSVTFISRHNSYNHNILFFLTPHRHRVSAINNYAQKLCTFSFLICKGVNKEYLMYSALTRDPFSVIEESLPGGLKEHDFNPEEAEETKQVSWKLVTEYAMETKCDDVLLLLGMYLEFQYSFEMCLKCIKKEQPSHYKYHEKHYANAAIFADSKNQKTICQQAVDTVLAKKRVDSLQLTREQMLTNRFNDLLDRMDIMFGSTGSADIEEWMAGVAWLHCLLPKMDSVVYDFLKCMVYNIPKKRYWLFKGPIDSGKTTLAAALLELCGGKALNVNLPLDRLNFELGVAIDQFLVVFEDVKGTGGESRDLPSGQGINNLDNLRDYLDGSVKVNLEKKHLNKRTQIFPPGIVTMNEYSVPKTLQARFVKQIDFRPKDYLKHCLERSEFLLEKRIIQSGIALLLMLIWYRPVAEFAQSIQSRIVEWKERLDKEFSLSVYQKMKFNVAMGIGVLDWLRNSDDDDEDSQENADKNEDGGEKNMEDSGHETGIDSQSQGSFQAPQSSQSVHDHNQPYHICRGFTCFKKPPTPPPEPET
smiles,measurement,setting,value
CN1CCN(c2ncnc3c2cnn3C)CC1,AC50,[1],13.3 µM (active)
Clc1ccc(CSc2nc3cc[nH]cc-3n2)cc1,EC50,[2],> 67.5 µM (inactive)
COc1cc(C(=O)NNC(=S)NC(=O)c2ccc(Cl)cc2)cc(OC)c1OC,EC50,[3],2.17 µM (active)
same,IC50,[4],> 122 µM (inactive)
same,EC50,[5],0.822 µM (active)
same,CC50,[6],> 25 µM (active)
same,EC50,[7],0.756 µM (active)
CN(C)c1ccc(C(C#N)c2ccccc2)nn1 (configuration not stated),EC50,[2],> 67.5 µM (inactive)
CCN(CC)C1CCN(c2nc3nonc3nc2NCCOC)C1 (configuration not stated),AC50,[1],14.4 µM (active)
CCOc1ccccc1C(=O)N[C@H](C(=O)Nc1nc2c(s1)CCCC2)C(C)C,EC50,[8],> 60 µM (inconclusive)
same,EC50,[9],> 67.6 µM (inactive)
same,EC50,[7],1.01 µM (active)
same,IC50,[10],> 67.6 µM (inactive)
CN(C)c1ccc(Nc2nc(-c3cccnc3)cs2)cc1,IC50,[11],8.54 µM (active)
same,EC50,[2],> 67.5 µM (inactive)
Cc1ccccc1N=Nc1c(O)[nH]c2ccccc12,EC50,[12],> 67.5 µM (inactive)
same,EC50,[13],> 67.5 µM (inactive)
COc1ccccc1S(=O)(=O)N(C)C[C@H]1Oc2cc(C#CCC3CCCC3)ccc2S(=O)(=O)N([C@@H](C)CO)C[C@@H]1C,AC50,[14],62.2 µM (active)
same,AC50,[15],52.2 µM (active)
same,AC50,[16],7.59 µM (active)
same,AC50,[17],17.1 µM (active)
CC(C)[C@H](NS(=O)(=O)c1ccc(F)cc1F)C(=O)N1CCC[C@H]1C(=O)NCCc1ccccc1Cl,EC50,[18],> 29.9 µM (inactive)
same,IC50,[19],4.65 µM (active)
same,EC50,[20],2.89 µM (active)
same,IC50,[21],> 29.9 µM (inactive)
CCN1CCN(C2=C(Nc3ccccc3)C(=O)c3ccccc3C2=O)CC1,AC50,[22],46.6 µM (active)
same,AC50,[23],25.5 µM (active)
C[C@H]1CN([C@@H](C)CO)C(=O)Cc2cc(NS(=O)(=O)c3ccc(Cl)cc3)ccc2O[C@@H]1CN(C)Cc1ccc(Cl)c(Cl)c1,AC50,[24],12.7 µM (active)
same,AC50,[25],10.2 µM (active)
same,AC50,[26],19.6 µM (active)
same,AC50,[27],20.4 µM (active)
same,AC50,[28],11.3 µM (active)
O=C(NC1=C(N2CCOCC2)C(=O)c2ccccc2C1=O)c1ccc(Br)cc1,AC50,[22],> 70 µM (inactive)
same,AC50,[23],28.9 µM (active)
Fc1cccc(Cl)c1/C=N/Nc1ccccn1,EC50,[12],> 67.6 µM (inactive)
same,EC50,[13],> 67.6 µM (inactive)
O=C(Nc1ccccc1)C(=O)c1c[nH]c2ccccc12,EC50,[9],> 67.5 µM (inactive)
same,IC50,[10],> 67.5 µM (inactive)
c1cnc2cc3c(cc2n1)[C@@H]1CNC[C@H]3C1 [VARENICLINE],IC50,[29],> 20 µM (inactive)
same,IC50,[30],> 6.67 µM (inactive)
same,IC50,[31],> 20 µM (inactive)
same,IC50,[32],> 6.67 µM (inactive)

# From ChEMBL document CHEMBL1201862, “PubChem BioAssay data set” (2004)
